Reference: the supplement of paper PMC10307832

Assays:
Experiment in all cases: relative viability (nuclei count vs DMSO), 5 days (fraction); higher = more cells survive
Decitabine + Luminespib = compound: Nc1ncn([C@H]2C[C@H](O)[C@@H](CO)O2)c(=O)n1 [Decitabine] + CCNC(=O)c1noc(-c2cc(C(C)C)c(O)cc2O)c1-c1ccc(CN2CCOCC2)cc1 [Luminespib] (partner 0.01 µM)
How it was run: (§1)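 Dosing by pin tool came one day after lung cancer cell lines were seeded in 1536-well plates, using either one drug or a fixed anchor-drug dose plus five library-drug doses (not always all listed) in √10 steps. After 5 days, nuclei were counted on 4× images. Relative viability is treated-well nuclei count divided by vehicle-well nuclei count, and values are medians of duplicate plates.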

Decitabine + Bortezomib = compound: Nc1ncn([C@H]2C[C@H](O)[C@@H](CO)O2)c(=O)n1 [Decitabine] + CC(C)C[C@H](NC(=O)[C@H](Cc1ccccc1)NC(=O)c1cnccn1)B(O)O [Bortezomib] (partner 0.002 µM)
How it was run: as §1

[1] = compound: O=C(C[C@H]1NCCC[C@@H]1O)Cn1cnc2cc(Br)c(Cl)cc2c1=O (racemic) [Halofuginone] + Nc1ncn([C@H]2C[C@H](O)[C@@H](CO)O2)c(=O)n1 [Decitabine] (partner 2 µM)
How it was run: as §1

Halofuginone + Olaparib = compound: O=C(C[C@H]1NCCC[C@@H]1O)Cn1cnc2cc(Br)c(Cl)cc2c1=O (racemic) [Halofuginone] + O=C(c1cc(Cc2n[nH]c(=O)c3ccccc23)ccc1F)N1CCN(C(=O)C2CC2)CC1 [Olaparib] (partner 8 µM)
How it was run: as §1

Cell Line	relative viability (Decitabine + Luminespib; first compound 0.04 µM)	relative viability (Decitabine + Luminespib; first compound 0.1265 µM)	relative viability (Decitabine + Luminespib; first compound 0.4 µM)	relative viability (Decitabine + Luminespib; first compound 1.265 µM)	relative viability (Decitabine + Luminespib; first compound 4 µM)	relative viability (Decitabine + Bortezomib; first compound 0.04 µM)	relative viability (Decitabine + Bortezomib; first compound 0.1265 µM)	relative viability (Decitabine + Bortezomib; first compound 0.4 µM)	relative viability (Decitabine + Bortezomib; first compound 1.265 µM)	relative viability (Decitabine + Bortezomib; first compound 4 µM)	relative viability ([1]; first compound 0.001 µM)	relative viability ([1]; first compound 0.003162 µM)	relative viability ([1]; first compound 0.01 µM)	relative viability ([1]; first compound 0.03162 µM)	relative viability ([1]; first compound 0.1 µM)	relative viability (Halofuginone + Olaparib; first compound 0.001 µM)	relative viability (Halofuginone + Olaparib; first compound 0.003162 µM)	relative viability (Halofuginone + Olaparib; first compound 0.01 µM)	relative viability (Halofuginone + Olaparib; first compound 0.03162 µM)	relative viability (Halofuginone + Olaparib; first compound 0.1 µM)
NCI-H1623	0.51	0.475	0.504	0.427	0.434	–	–	–	–	–	–	–	–	–	–	–	–	–	–	–
HCC-827	0.239	0.31	0.246	0.301	0.316	0.748	0.567	0.399	0.36	0.372	0.332	0.282	0.207	0.295	0.308	0.673	0.588	0.667	0.631	0.599
NCI-H322M	0.77	0.835	0.669	0.441	0.489	1.18	1.06	0.716	0.699	0.479	0.71	0.657	0.681	0.657	0.53	0.821	0.535	0.781	0.624	0.5
ChaGo-K-1	0.584	0.487	0.33	0.277	0.39	0.768	0.756	0.579	0.585	0.566	0.548	0.531	0.474	0.532	0.532	0.397	0.452	0.407	0.398	0.442
BEN	0.332	0.373	0.243	0.282	0.242	0.779	0.779	0.539	0.427	0.481	0.719	0.743	0.754	0.778	0.561	1.06	1	1.12	1.02	0.626
NCI-H2347	0.472	0.393	0.515	0.453	0.36	–	0.768	0.844	0.525	0.572	0.595	0.676	0.567	0.65	0.659	0.537	0.583	0.565	0.518	0.43
LOU-NH91	0.323	0.344	0.358	0.299	0.35	0.412	0.471	0.436	0.512	0.523	0.809	0.818	0.787	0.802	0.817	0.958	0.93	0.853	0.925	0.81
NCI-H2228	0.102	0.134	0.116	0.148	0.165	0.788	0.755	0.389	0.314	0.229	–	–	–	–	–	0.669	0.627	0.461	0.184	0.124
NCI-H2342	0.765	0.737	0.804	0.537	0.434	–	–	–	–	–	0.664	0.724	0.722	0.671	0.685	0.644	0.431	0.413	0.431	0.427
HCC-366	–	–	–	–	–	0.971	0.788	0.421	0.197	0.121	0.385	0.418	0.339	0.373	0.336	0.337	0.319	0.351	0.328	0.0775
NCI-H2405	0.798	0.654	0.59	0.431	0.445	0.88	0.905	0.828	0.66	0.538	0.74	0.781	0.767	0.722	0.632	0.934	0.864	0.826	0.795	0.66
Calu-6	–	–	–	–	–	0.853	0.67	0.43	0.373	0.321	–	–	–	–	–	0.611	–	0.584	0.327	0.135
201T	0.984	0.987	1.07	–	0.75	1.11	1.09	1.15	1	1.03	0.844	0.896	0.857	0.792	0.845	0.851	0.906	0.853	0.827	0.83
CAL-12T	0.612	0.359	–	0.298	0.249	0.828	1.01	0.535	0.558	0.543	–	–	–	–	–	0.785	0.717	0.709	0.754	0.548
HCC-44	–	0.848	0.52	0.618	0.471	0.821	0.898	0.536	0.602	0.548	0.967	0.992	0.953	0.973	0.902	0.97	1.03	0.987	0.962	0.942
NCI-H358	0.073	0.206	0.247	0.199	0.1	–	–	–	–	–	0.227	0.239	0.2	0.135	0.119	0.653	0.556	0.459	0.26	0.124
SW 900	0.212	0.164	0.169	0.179	0.197	–	–	–	–	–	0.484	0.418	–	0.443	0.358	0.805	0.851	–	0.733	0.197
NCI-H2087	0.172	0.175	0.204	0.135	0.158	0.603	0.55	0.51	0.33	0.36	0.3	0.356	0.308	0.27	0.228	0.616	0.685	0.629	0.617	0.277
COR-L 105	0.561	0.517	0.714	0.469	0.571	0.463	0.65	0.378	0.494	0.422	0.673	0.791	0.63	0.598	0.568	0.695	0.607	0.698	0.664	0.625
